From ChEMBL document CHEMBL3734705, “Synthesis and in vitro cytotoxicity of novel C-12 substituted-14-deoxy-andrographolide derivatives as potent anti-cancer agents” (2015)

How the values were obtained:
Assay type in all cases: functional
[1] = Cytotoxicity against human SW620 cells after 48 hrs by SRB assay; settings: SW-620, 48 h
786-0 = assay: Cytotoxicity against human 786-0 cells after 48 hrs by SRB assay; settings: 786-0, 48 h
[2] = Cytotoxicity against human Hs578T cells after 48 hrs by SRB assay; settings: Hs-578T
EKVX = assay: Cytotoxicity against human EKVX cells after 48 hrs by SRB assay
NCI-H522 = assay: Cytotoxicity against human NCI-H522 cells after 48 hrs by SRB assay; settings: NCI-H522, 48 h
CCRF-CEM = assay: Cytotoxicity against human CCRF-CEM cells after 48 hrs by SRB assay
[3] = Cytotoxicity against human PC3 cells after 48 hrs by SRB assay; settings: PC-3, 48 h
SR = assay: Cytotoxicity against human SR cells after 48 hrs by SRB assay
[4] = Cytotoxicity against human OVCAR3 cells after 48 hrs by SRB assay; settings: OVCAR-3, 48 h
[5] = Cytotoxicity against human OVCAR5 cells after 48 hrs by SRB assay; settings: OVCAR-5, 48 h
[6] = Cytotoxicity against human MOLT4 cells after 48 hrs by SRB assay; settings: MOLT-4, 48 h
NCI-H23 = assay: Cytotoxicity against human NCI-H23 cells after 48 hrs by SRB assay; settings: NCI-H23, 48 h
[7] = Cytotoxicity against human Caki1 cells after 48 hrs by SRB assay; settings: CAKI-1, 48 h
[8] = Cytotoxicity against human IGROV1 cells after 48 hrs by SRB assay; settings: IGROV-1, 48 h
[9] = Cytotoxicity against human TK10 cells after 48 hrs by SRB assay; settings: TK-10, 48 h
[10] = Cytotoxicity against human HOP62 cells after 48 hrs by SRB assay; settings: HOP-62, 48 h
[11] = Cytotoxicity against human BT549 cells after 48 hrs by SRB assay; settings: BT-549, 48 h
A549 = assay: Cytotoxicity against human A549 cells after 48 hrs by SRB assay; settings: A549, 48 h
MDA-MB-231 = assay: Cytotoxicity against human MDA-MB-231 cells after 48 hrs by SRB assay; settings: MDA-MB-231, 48 h
[12] = Cytotoxicity against human COLO205 cells after 48 hrs by SRB assay; settings: COLO 205, 48 h
KM12 = assay: Cytotoxicity against human KM12 cells after 48 hrs by SRB assay; settings: KM12, 48 h
[13] = Cytotoxicity against human SKOV3 cells after 48 hrs by SRB assay; settings: SK-OV-3, 48 h
SK-MEL-28 = assay: Cytotoxicity against human SK-MEL-28 cells after 48 hrs by SRB assay; settings: SK-MEL-28, 48 h
[14] = Cytotoxicity against human OVCAR4 cells after 48 hrs by SRB assay; settings: OVCAR-4, 48 h
[15] = Cytotoxicity against human HCT116 cells after 48 hrs by SRB assay; settings: HCT-116, 48 h
NCI-H322M = assay: Cytotoxicity against human NCI-H322M cells after 48 hrs by SRB assay
SK-MEL-2 [16] = assay: Cytotoxicity against human SK-MEL-2 cells after 48 hrs by SRB assay; settings: SK-MEL-2, 48 h
MDA-MB-435 = assay: Cytotoxicity against human MDA-MB-435 cells after 48 hrs by SRB assay; settings: MDA-MB-435, 48 h
[17] = Cytotoxicity against human UACC257 cells after 48 hrs by SRB assay; settings: UACC-257, 48 h
[18] = Cytotoxicity against human RXF393 cells after 48 hrs by SRB assay; settings: RXF 393, 48 h
T47D = assay: Cytotoxicity against human T47D cells after 48 hrs by SRB assay
[19] = Cytotoxicity against human OVCAR8 cells after 48 hrs by SRB assay; settings: OVCAR-8, 48 h
[20] = Cytotoxicity against human HCT15 cells after 48 hrs by SRB assay; settings: HCT-15, 48 h
[21] = Cytotoxicity against human HL-60(TB) cells after 48 hrs by SRB assay; settings: HL-60, 48 h
SK-MEL-2 [22] = assay: Cytotoxicity against human SK-MEL-2 cells assessed as growth level at 10 uM after 48 hrs by SRB assay
[23] = read-out: LC50 (the source's name)

C=C1CC[C@@H]2[C@](C)(COC(C)=O)[C@H](OC(C)=O)CC[C@@]2(C)[C@@H]1C/C=C1/C(=O)OC[C@H]1OC(C)=O gave a GI50 [1] of 2.29 µM, an LC50 [1] of 41.1 µM and a TGI [1] of 5.85 µM. For the same compound, the GI50 (786-0) was 2.02 µM, the LC50 (786-0) was 9.29 µM and the TGI (786-0) was 4.34 µM. For the same compound, the GI50 [2] was 12.3 µM, the LC50 (concentration killing 50% of cells) [2] was over 100 µM and the TGI [2] was 55.4 µM. For the same compound, the GI50 (EKVX) was 12.9 µM, the LC50 (EKVX) was 50.9 µM and the TGI (EKVX) was 25.6 µM. It also gave a GI50 (NCI-H522) of 1.52 µM, an LC50 (NCI-H522) of 8.67 µM and a TGI (NCI-H522) of 3.63 µM. The GI50 (CCRF-CEM) was 1.12 µM, the TGI (CCRF-CEM) was 5.32 µM and the CC50 (CCRF-CEM; [23]) was over 100 µM. The GI50 [3] was 6.07 µM, the LC50 [3] was 48.9 µM and the TGI [3] was 19.9 µM. For the same compound, the GI50 (SR) was 2.59 µM, the TGI (SR) was 10.1 µM and the CC50 (SR; [23]) was over 100 µM. The GI50 [4] was 2.17 µM, the LC50 (concentration killing 50% of cells) [4] was 8.15 µM and the TGI [4] was 4.21 µM. It also gave a GI50 [5] of 1.93 µM, an LC50 (concentration causing 50% net cell kill) [5] of 7.97 µM and a TGI [5] of 3.92 µM. For the same compound, the GI50 [6] was 3.8 µM, the LC50 [6] was over 100 µM and the TGI [6] was 16.1 µM. It also gave a GI50 (NCI-H23) of 6.22 µM, an LC50 (NCI-H23) of 66.9 µM and a TGI (NCI-H23) of 23 µM. For the same compound, the GI50 [7] was 6.67 µM, the LC50 [7] was 44.3 µM and the TGI [7] was 19.6 µM. For the same compound, the GI50 [8] was 2.41 µM, the TGI [8] was 6.23 µM and the CC50 [8, 23] was 32 µM. For the same compound, the GI50 [9] was 3.81 µM, the LC50 [9] was 38.2 µM and the TGI [9] was 13.3 µM. The GI50 [10] was 4.4 µM, the LC50 [10] was over 100 µM and the TGI [10] was 21.3 µM. The GI50 [11] was 2.29 µM, the TGI [11] was 5.63 µM and the CC50 [11, 23] was 18.8 µM. The GI50 (A549) was 11.9 µM, the LC50 (A549) was 79.3 µM and the TGI (A549) was 30.7 µM. The GI50 (MDA-MB-231) was 12.5 µM, the LC50 (MDA-MB-231) was 58.7 µM and the TGI (MDA-MB-231) was 27.1 µM. For the same compound, the GI50 [12] was 3.37 µM, the LC50 [12] was over 100 µM and the TGI [12] was 11.4 µM. The GI50 (KM12) was 10.5 µM, the LC50 (KM12) was 73.4 µM and the TGI (KM12) was 27.7 µM. For the same compound, the GI50 [13] was 19.1 µM, the TGI [13] was 36.3 µM and the CC50 [13, 23] was 68.8 µM. It also gave a GI50 (SK-MEL-28) of 1.75 µM, an LC50 (lethal concentration 50%) (SK-MEL-28) of 6.51 µM and a TGI (SK-MEL-28) of 3.38 µM. For the same compound, the GI50 [14] was 3.57 µM, the TGI [14] was 15.4 µM and the CC50 [14, 23] was 41.8 µM. The GI50 [15] was 1.45 µM, the LC50 (concentration killing 50% of cells) [15] was 6.15 µM and the TGI [15] was 2.98 µM. For the same compound, the GI50 (NCI-H322M) was 16 µM, the LC50 (NCI-H322M) was 55.3 µM and the TGI (NCI-H322M) was 29.7 µM. It also gave a GI50 (SK-MEL-2 [16]) of 10.7 µM, an LC50 (concentration causing 50% net cell kill) (SK-MEL-2 [16]) of 64.3 µM and a TGI (SK-MEL-2 [16]) of 26.3 µM. The GI50 (MDA-MB-435) was 2.63 µM, the LC50 (50% lethal concentration) (MDA-MB-435) was 32.2 µM and the TGI (MDA-MB-435) was 10.1 µM. For the same compound, the GI50 [17] was 6.2 µM, the LC50 (concentration killing 50% of cells) [17] was 53.2 µM and the TGI [17] was 19.9 µM. The GI50 [18] was 1.95 µM, the LC50 (concentration causing 50% net cell kill) [18] was 8.75 µM and the TGI [18] was 4.13 µM. The GI50 (T47D) was 2.86 µM, the LC50 (concentration killing 50% of cells) (T47D) was over 100 µM and the TGI (T47D) was 13.8 µM. It also gave a GI50 [19] of 3.38 µM, an LC50 [19] of over 100 µM and a TGI [19] of 22 µM. It also gave a GI50 [20] of 1.58 µM, an LC50 [20] of 65.5 µM and a TGI [20] of 4.33 µM. It also gave a GI50 [21] of 2.61 µM, a TGI [21] of 6.78 µM and a CC50 [21, 23] of 78.5 µM.
Work on C=C1CC[C@@H]2[C@](C)(COC(C)=O)[C@H](OC(C)=O)CC[C@@]2(C)[C@@H]1CC(NC1CCCC1)C1=CCOC1=O (stereo not given in full) yielded an Activity (SK-MEL-2 [22]) of 85.11%.
Work on C=C1CC[C@@H]2[C@](C)(COC(C)=O)[C@H](OC(C)=O)CC[C@@]2(C)[C@@H]1CC(NCc1cccc(Cl)c1)C1=CCOC1=O (mixture of isomers) yielded an Activity (SK-MEL-2 [22]) of 68.04%.
C=C1CC[C@@H]2[C@](C)(COC(C)=O)[C@H](OC(C)=O)CC[C@@]2(C)[C@@H]1CC(NCc1ccc(F)cc1)C1=CCOC1=O (mixture of isomers) gave an Activity (SK-MEL-2 [22]) of 73.2%.
